# Measured values: patent US11135236B2, “Retinoic acid receptor gamma agonists to attenuate anthracycline-induced cardiotoxicity” (Northwestern University, priority 2018, dated 2021)
# “Also recorded” adds a separate entry of the source. Marks after values point to notes of the source that are not given here.
# What was measured:
# control hiPSC-CMs = settings: 1 μM CD1530 and 30 μM U0126, Control hiPSC-CMs, 72 h doxorubicin
# Procedure: (§2) 384-well plate-based cell viability, caspase 3/7 activity, and reactive oxygen species (ROS) assays. […] Luminescence was measured using a VarioSkan Lux Multi-Mode Reader (Thermo Scientific) with an integration time of 0.25 sec. 10 μM staurosporine (MedChemExpress) was used as a positive control. […] 10 μM staurosporine and 50 μM menadione (both MedChemExpress) was used as a positive control, respectively. Data were analyzed using Prism 7.0 software (GraphPad) using standard dose-response guidelines.
# MCF7 = assay: breast cancer cell viability after 72 h of doxorubicin and RARG agonists co-treatment; type: cell-based, human; settings: MCF7, doxorubicin LD50 with agonist co-treatment, 10 μM, footnote: 1 μM each, 72 h; Vehicle 0.490
# Procedure: as §2
# Breast cancer cell lines. Four human breast cancer cell lines were used, MCF7 (adenocarcinoma, ATCC HTB-22) and Hs 578T (carcinsarcoma, ATCC HTB-126) both cultured in RPMI 1640 (Corning) with 10% FBS (Opti-Gold, GenDEPOT), MDA-MB-231 (adenocarcinoma, ATCC HTB-26) and MDA-MB-468 (adenocarcinoma, ATCC HTB-131) both cultured in DMEM (Corning) with 10% FBS. All cells were cultured on uncoated tissue culture plates (Greiner) and passaged with TrypLE Express (Gibco).
# C57BL/6J Mice = assay: mouse model of doxorubicin-induced cardiomyopathy, echocardiography; type: in vivo; settings: doxorubicin 3 mg kg^−1 i.p. twice weekly for 3 weeks, agonist 12 mg kg^−1 oral once a day, at three weeks
# From the text: (§1) Mouse model of doxorubicin-induced cardiomyopathy and drug administration. […] For the control group, we treated mice with corn oil in the same schedule as agonist administration. We recorded an echocardiogram once a week (day 0, day 7, day 14, and day 21) and terminated the experiment at day 21. Hearts were harvested for western blot analyses as mentioned above.
# Echocardiographic evaluation. Mice were studied at baseline and weekly during the protocol under light anesthesia with isoflurane (induction 3%, maintenance 1.5%). 2D images in the parastemal short axis were obtained with a GE Vivid 7 ultrasound system (GE Healthcare) equipped with a 13 MHz transducer. Left ventricular end-systolic (LVESD) and end-diastolic (LVEDD) dimensions were measured and left ventricular fractional shortening (FS) was calculated.
# [1] = test system: TOP2B, pERK and BCL2 in the hearts of mice; assay: Western blot of mouse hearts at three weeks after treatment; type: in vivo; settings: doxorubicin plus oral agonist
# Procedure: Western blot. We washed and harvested cells in cold PBS and collected them by centrifugation at 20,000 g for 10 min. at 4° C. Pellet was lysed in PBS containing 1% SDS and protease inhibitors (cOmplete, ROCHE) and sonicated (2 pulses of 12 sec at 125 Watt) to shear DNA. We centrifuged the samples at 20,000 g for 15 min. at RT to precipitate and discard the insoluble material and the protein concentration in the supernatant was quantified using BCA assay (Thermo Scientific) following manufacturer's instructions. 20 μg protein/sample were subject to SDS-PAGE in a 9% acrylamide gel for 45 min. at 180 V. and transferred to a PVDF membrane (Immobilon-P, Millipore) at 200 mA. For 90 min. Membranes were blocked in TBST containing 5% milk for 1 h. at RT and incubated at 4° C. overnight with the following primary antibodies: 1:1000 monoclonal rabbit IgG RARG (Abcam, ab187159), 1:1000 polyclonal rabbit IgG TOP2B (Abcam, ab125297), 1:5000 polyclonal rabbit IgG β-Tubulin (Sigma, T2200), 1:5000 monoclonal mouse IgG2a β-Actin (Sigma, A5316). The membrane was washed three times for 10 min with TBST and incubated with the appropriate secondary antibody: 1:5,000 HRP-goat anti-mouse IgG or HRP-goat anti-rabbit IgG (GE NA931V and NA934V) for 1 h. at RT. After three additional washes with TBST, membranes were developed by chemiluminiscence (SuperSignal West Pico, Thermo Scientific). Signals were captured using a CCD camera-based imager (Azure Biosystems) and quantified using Image J software. Mice heart tissues were harvested and homogenized using lysis buffer (80 mM NaCl, 0.05% Triton X, 1 mM EDTA, 20 mM HEPES, 0.5% sodium deoxycholate, 1 mM DTT, 20 mM β-glycerophosphate) with TissueLyser LT (Qiagen) and centrifuged at 10,000 rpm for 15 min at 4° C. Proteins were quantified with Bradford (Bio-Rad) and separated by TrisGlycine SDS/PAGE (Bio-Rad). Transferred proteins on nitrocellulose membrane were probed against TOP2B (R&D Systems), phosphorylated ERK1/2 (Cell Signaling Technologies), BCL2 (Santa Cruz Biotechnology), and GAPDH (Advanced ImmunoChemical).
# as §1
# ERK1/2 = assay: MSD analysis of phosphorylated ERK in hiPSC-CMs; type: cell-based, human; settings: Control hiPSC-CMs treated with doxorubicin 24 h, with or without pre/co-treatment
# Procedure: MSD analysis of phosphorylated ERK. hiPSC-CMs were collected in lysis buffer (150 mM NaCl, 1% TritonX-100, 50 mM Tris-HCl, pH 8.0) supplemented with Phosphatase Inhibitor II (1:100, Sigma-Adrich), Phosphatase Inhibitor Cocktail 3 (1:100, Sigma-Adrich), 1 mM NaVO4 and protease inhibitors (cOmplete, ROCHE). We centrifuged the samples at 50,000 g for 15 min. at 4° C. to precipitate and discard the insoluble material and the protein concentration in the supernatant was quantified using BCA assay (Thermo Scientific) following manufacturer's instructions. 2.5 μg protein/sample were analyzed using the MSD Phospho(Thr202/yr204; Thr185/Tyr187)/Total ERK1/2 Assay Whole Cell Lysate Kit (Meso Scale Discovery, K15100D-1), according to manufacturer's recommendations. The ratio of phosphorylated ERK was normalized to Total ERK1/2 signal, and analyzed using Prism 7.0 software (GraphPad).
# RARG-WT hiPSC-CMs = settings: RARG-WT hiPSC-CMs, agonist 1 μM, 72 h doxorubicin
# Procedure: as §2
Compound,effect of ERK signaling inhibition on the protective effect of CD1530 (control hiPSC-CMs),LD50 (MCF7),cardiac function (fractional shortening) compared with vehicle treatment (C57BL/6J Mice),pERK in the murine hearts [1],pERK (ERK1/2),BCL2 in the murine hearts [1],TOP2B in the murine hearts [1],increase of doxorubicin LD50 (RARG-WT hiPSC-CMs)
N#CC(=C(/N)Sc1ccccc1N)/C(C#N)=C(\N)Sc1ccccc1N [U0126],completely abolished the protective effect of CD1530,–,–,–,–,–,–,–
"O=C(O)c1ccc2cc(-c3ccc(O)c(C45CC6CC(CC(C6)C4)C5)c3)ccc2c1 [CD437, 6-(4-Hydroxy-3-tricyclo[3.3.1.13,7]dec-1-ylphenyl)-2-naphthalenecarboxylic acid]",–,0.343 µM,–,–,–,–,–,–
"CC1=C(/C=C/C(C)=C/C=C/C(C)=C/C(=O)O)C(C)(C)CCC1 [ATRA, 3,7-Dimethyl-9-(2,6,6-trimethyl-1-cyclohexen-1-yl)-2E,4E,6E,8E-nonatetraenoic acid]",–,0.355 µM,marginally improved,significantly increased,–,–,–,–
"O=C(O)c1ccc(-c2ccc3cc(O)c(C45CC6CC(CC(C6)C4)C5)cc3c2)cc1 [CD1530, 4-(6-Hydroxy-7-tricyclo[3.3.1.13,7]dec-1-yl-2-naphthalenyl)benzoic acid]",–,0.275** μM,significantly higher,significantly increased,significant increase in pERK; also recorded: significant upregulation of ERK expression,significant upregulation,modest but non-significant downregulation,4 fold
